# Test results taken from patent US11028087B2, “2,6-disubstituted-9-cyclopentyl-9H-purines, use thereof as medicaments, and pharmaceutical compositions” (UNIVERZITA PALACKEHO V OLOMOUCI, priority 2017, dated 2021).
# Residue numbers refer to the chain shown, from its start.
# How the values were obtained:
# [1] = tested on: EOL-1 (eosinophilic leukaemia, carrying the fusion FIP1L1-PDGFRA); test: Calcein AM cytotoxicity assay; format: cell-based; details: Homo sapiens, EOL1, 72 h; EOL-1; Calcein AM, three days; read-out: EC50 values (μM) EOL-1
# Source text: (§1) Cytotoxicity of the compounds is the major property determining their anticancer effect in vivo. One of the parameters used, as the basis for cytotoxicity assays, is the integrity of cytoplasmic membrane of viable cells. For example, a microtiter assay, which uses acetomethoxy derivate of calcein (Calcein AM), is widely used for evaluation of cell proliferation and cytotoxicity. This assay is used in drug screening programs and in chemosensitivity testing. Intracellular esterases of viable cells convert calcein AM to green-fluorescent calcein of which signal corresponds to the number of viable cells in the culture.
# (§2) We have been using the following cell lines: MV4-11 (acute myeloid leukemia, FLT3-ITD positive), MOLM-13 (acute myeloid leukemia, FLT3-ITD positive), THP-1 (acute myeloid leukemia, wt FLT3), U937 (monocytic leukemia, wt FLT3), EOL-1 (eosinophilic leukaemia, carrying the fusion FIP1L1-PDGFRA), H1703 (non-small cell lung carcinoma, PDGFRA amplification). […] K562 and MCF-7 cell lines were maintained in DMEM supplemented with 10% fetal bovine serum, penicilin (100 U/ml) and streptomycin (100 μg/ml). All cell lines were cultivated at 37° C. in 5% CO2. For cytotoxicity assays, cells were seeded in appropriate densities into 96 well plates and the next day tested compounds were added at various concentrations in triplicates. Three days after drug addition, Calcein AM solution (final concentration 1 μg/ml; Thermo Scientific, USA) was added into each well and incubated for 1 h.
# K562 = test: Calcein AM cytotoxicity assay; format: cell-based; details: Homo sapiens, 72 h; K562; Calcein AM, three days; read-out: EC50 values (μM) K562
# Source text: as §1, §2
# MCF-7 = test: Calcein AM cytotoxicity assay; format: cell-based; details: Homo sapiens, MCF7, 72 h; MCF-7; Calcein AM, three days; read-out: EC50 values (μM) MCF-7
# Source text: as §1, §2
# [2] = tested on: MOLM-13 (acute myeloid leukemia, FLT3-ITD positive); test: Calcein AM cytotoxicity assay; format: cell-based; details: Homo sapiens, 72 h; MOLM-13; Calcein AM, three days; read-out: EC50 values (μM) MOLM-13
# Source text: as §1, §2
# [3] = tested on: MV4-11 (acute myeloid leukemia, FLT3-ITD positive); test: Calcein AM cytotoxicity assay; format: cell-based; details: Homo sapiens, 72 h; MV4-11; Calcein AM, three days after drug addition; read-out: EC50 values (μM) MV4-11
# Source text: as §1, §2
# [4] = tested on: THP-1 (acute myeloid leukemia, wt FLT3); test: Calcein AM cytotoxicity assay; format: cell-based; details: Homo sapiens, 72 h; THP-1; Calcein AM, three days; read-out: EC50 values (μM) THP-1
# Source text: as §1, §2
# [5] = tested on: U937 (monocytic leukemia, wt FLT3); test: Calcein AM cytotoxicity assay; format: cell-based; details: Homo sapiens, U-937, 72 h; U937; Calcein AM, three days; read-out: EC50 values (μM) U937
# Source text: as §1, §2
# [6] = tested on: Kasumi-1 (acute myeloid leukemia, KIT mutation Asn822Lys); test: Calcein AM cytotoxicity assay; format: cell-based; details: Homo sapiens, 72 h; Kasumi-1; Calcein AM, three days; read-out: EC50 values (μM) Kasumi-1
# Source text: as §1
# We have been using the following cell lines: MV4-11 (acute myeloid leukemia, FLT3-ITD positive), MOLM-13 (acute myeloid leukemia, FLT3-ITD positive), THP-1 (acute myeloid leukemia, wt FLT3), U937 (monocytic leukemia, wt FLT3), EOL-1 (eosinophilic leukaemia, carrying the fusion FIP1L1-PDGFRA), H1703 (non-small cell lung carcinoma, PDGFRA amplification). They were maintained in RPMI-1640 supplemented with 10% fetal bovine serum, penicillin (100 U/ml) and streptomycin (100 μg/ml). Kasumi-1 (acute myeloid leukemia, KIT mutation Asn822Lys) cells were cultivated in RPMI-1640 supplemented with 15% fetal bovine serum, penicillin (100 U/ml) and streptomycin (100 μg/ml). K562 and MCF-7 cell lines were maintained in DMEM supplemented with 10% fetal bovine serum, penicilin (100 U/ml) and streptomycin (100 μg/ml). All cell lines were cultivated at 37° C. in 5% CO2. For cytotoxicity assays, cells were seeded in appropriate densities into 96 well plates and the next day tested compounds were added at various concentrations in triplicates. Three days after drug addition, Calcein AM solution (final concentration 1 μg/ml; Thermo Scientific, USA) was added into each well and incubated for 1 h. After this incubation period, fluorescence of the live cells was measured at 485 nm/538 nm (ex/em) with a Fluoroskan Ascent microplate reader (Labsystems).
# HL60 = test: Calcein AM cytotoxicity assay; format: cell-based; details: Homo sapiens, HL-60, 72 h, three days
# CDK1/Cyclin B = molecular target: T1, CDK1/Cyclin B (Homo sapiens, UniProt P06493); test: Kinase inhibition assay with [γ-33P]ATP; format: biochemical; details: histone H1, 15 μM ATP
# T1 construct: made in house; host or cells: Sf9 insect cells, baculoviral infection
# T1 sequence (P06493 whole entry, species assumed): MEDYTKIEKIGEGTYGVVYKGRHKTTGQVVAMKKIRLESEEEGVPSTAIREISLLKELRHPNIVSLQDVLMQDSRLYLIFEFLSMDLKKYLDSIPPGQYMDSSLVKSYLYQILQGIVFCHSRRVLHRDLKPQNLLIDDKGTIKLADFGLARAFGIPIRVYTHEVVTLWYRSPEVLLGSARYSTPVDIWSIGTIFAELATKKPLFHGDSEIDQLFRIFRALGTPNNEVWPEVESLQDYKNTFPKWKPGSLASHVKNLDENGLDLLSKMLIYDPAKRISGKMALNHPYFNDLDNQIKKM
# T1 sequence (P14635 whole entry partner, species assumed): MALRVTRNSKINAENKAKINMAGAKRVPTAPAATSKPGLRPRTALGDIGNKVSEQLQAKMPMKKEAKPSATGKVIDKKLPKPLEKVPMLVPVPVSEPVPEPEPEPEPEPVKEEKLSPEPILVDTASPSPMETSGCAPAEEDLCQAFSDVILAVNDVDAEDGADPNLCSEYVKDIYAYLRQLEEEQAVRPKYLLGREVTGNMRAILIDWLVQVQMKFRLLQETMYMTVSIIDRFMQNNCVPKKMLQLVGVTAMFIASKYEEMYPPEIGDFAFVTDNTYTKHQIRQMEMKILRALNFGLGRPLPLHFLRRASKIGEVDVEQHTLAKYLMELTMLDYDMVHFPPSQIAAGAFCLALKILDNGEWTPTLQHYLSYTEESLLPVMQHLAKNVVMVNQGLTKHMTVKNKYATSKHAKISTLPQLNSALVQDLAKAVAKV
# Experimental: (§3) CDK1/Cyclin B and CDK2/Cyclin E kinases were produced in Sf9 insect cells via baculoviral infection and purified on a NiNTA column (Qiagen). CDK5/p35 and CDK7Cyclin H/MAT1, FLT3 WT, FLT3-ITD and FLT3 D835 were purchased from ProQinase GmbH. The kinase reactions were assayed with 1 mg/mL histone H1 (for CDK1, CDK2 and CDK5), (YSPTSPS)2KK peptide (for CDK7) or AGLT substrate (for FLT3) in the presence of 15/15/0.15/1.5/1 μM ATP (for CDK1/CDK2/CDK5/CDK7/FLT3), 0.05 μCi [γ-^33P]ATP and of the test compound in a final volume of 10 μL, all in a reaction buffer (60 mM HEPES-NaOH, pH 7.5, 3 mM MgCl2, 3 mM MnCl2, 3 μM Na-orthovanadate, 1.2 mM DTT, 2.5 μg/50 μl PEG20,000). The reactions were stopped by adding 5 μL of 3% aq H3PO4. Aliquots were spotted onto P-81 phosphocellulose (Whatman), washed 3× with 0.5% aq H3PO4 and finally air-dried.
# CDK2/Cyclin E = molecular target: T2, CDK2/Cyclin E (Homo sapiens, UniProt P24941); test: Kinase inhibition assay with [γ-33P]ATP; format: biochemical; details: histone H1, 15 μM ATP; read-out: IC50 values (μM) CDK2
# T2 construct: made in house; host or cells: Sf9 insect cells, baculoviral infection
# Experimental: as §3
# CDK5/p35 = molecular target: T3, CDK5/p35 (Homo sapiens, UniProt Q00535); test: Kinase inhibition assay with [γ-33P]ATP; format: biochemical; details: histone H1, 0.15 μM ATP
# T3 construct: purchased ProQinase GmbH
# T3 sequence (Q00535 whole entry): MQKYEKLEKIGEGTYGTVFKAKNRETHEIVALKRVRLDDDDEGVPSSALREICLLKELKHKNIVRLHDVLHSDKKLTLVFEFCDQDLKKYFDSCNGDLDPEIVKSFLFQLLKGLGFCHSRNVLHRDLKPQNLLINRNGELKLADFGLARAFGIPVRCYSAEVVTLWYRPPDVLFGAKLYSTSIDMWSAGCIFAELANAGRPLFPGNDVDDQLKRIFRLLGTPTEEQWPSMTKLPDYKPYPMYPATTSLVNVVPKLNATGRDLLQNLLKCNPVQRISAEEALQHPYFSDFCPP
# T3 sequence (Q15078 whole entry partner): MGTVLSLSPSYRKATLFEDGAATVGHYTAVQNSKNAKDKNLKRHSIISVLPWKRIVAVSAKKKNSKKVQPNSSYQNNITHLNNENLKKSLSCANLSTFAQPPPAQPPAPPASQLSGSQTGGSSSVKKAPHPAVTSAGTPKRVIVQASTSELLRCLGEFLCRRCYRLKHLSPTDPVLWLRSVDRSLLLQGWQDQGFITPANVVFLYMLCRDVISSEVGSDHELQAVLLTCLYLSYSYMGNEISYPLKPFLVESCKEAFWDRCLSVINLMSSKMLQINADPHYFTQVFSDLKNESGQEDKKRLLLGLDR
# Experimental: as §3
# FLT3 D835 = molecular target: T4, FLT3 D835 (Homo sapiens, UniProt P36888); test: Kinase inhibition assay with [γ-33P]ATP; format: biochemical; details: AGLT substrate, 1 μM ATP
# T4 sequence (P36888 1-993 D835Y): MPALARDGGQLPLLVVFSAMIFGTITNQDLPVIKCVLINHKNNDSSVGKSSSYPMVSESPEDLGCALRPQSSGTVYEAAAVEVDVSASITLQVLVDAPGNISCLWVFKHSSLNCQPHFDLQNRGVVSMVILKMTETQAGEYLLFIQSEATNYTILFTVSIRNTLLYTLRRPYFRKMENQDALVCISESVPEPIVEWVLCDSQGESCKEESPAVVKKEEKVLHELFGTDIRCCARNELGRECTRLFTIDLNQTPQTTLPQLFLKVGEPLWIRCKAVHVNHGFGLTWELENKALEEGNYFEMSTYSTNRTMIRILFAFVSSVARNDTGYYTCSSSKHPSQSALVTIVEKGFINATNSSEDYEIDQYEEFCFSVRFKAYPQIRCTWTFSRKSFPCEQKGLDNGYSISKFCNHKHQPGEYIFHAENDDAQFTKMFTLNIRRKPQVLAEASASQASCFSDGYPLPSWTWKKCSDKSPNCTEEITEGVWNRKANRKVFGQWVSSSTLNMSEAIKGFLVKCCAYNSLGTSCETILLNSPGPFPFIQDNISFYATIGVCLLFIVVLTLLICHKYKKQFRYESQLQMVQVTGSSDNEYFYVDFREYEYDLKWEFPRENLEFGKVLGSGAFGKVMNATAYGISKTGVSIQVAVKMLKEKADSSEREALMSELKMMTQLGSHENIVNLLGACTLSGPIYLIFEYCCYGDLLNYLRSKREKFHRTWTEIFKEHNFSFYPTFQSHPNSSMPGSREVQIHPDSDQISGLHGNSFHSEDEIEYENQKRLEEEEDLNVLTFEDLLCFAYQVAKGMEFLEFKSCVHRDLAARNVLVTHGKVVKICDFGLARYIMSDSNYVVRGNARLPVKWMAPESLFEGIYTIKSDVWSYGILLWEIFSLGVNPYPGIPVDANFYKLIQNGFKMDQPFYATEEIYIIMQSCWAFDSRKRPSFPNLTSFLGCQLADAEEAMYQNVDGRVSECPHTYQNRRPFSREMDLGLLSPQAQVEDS
# Experimental: as §3
# FLT3 WT = molecular target: T5, FLT3 WT (Homo sapiens, UniProt P36888); test: Kinase inhibition assay with [γ-33P]ATP; format: biochemical; details: AGLT substrate, 1 μM ATP
# T5 construct: purchased ProQinase GmbH
# T5 sequence (P36888 27-993): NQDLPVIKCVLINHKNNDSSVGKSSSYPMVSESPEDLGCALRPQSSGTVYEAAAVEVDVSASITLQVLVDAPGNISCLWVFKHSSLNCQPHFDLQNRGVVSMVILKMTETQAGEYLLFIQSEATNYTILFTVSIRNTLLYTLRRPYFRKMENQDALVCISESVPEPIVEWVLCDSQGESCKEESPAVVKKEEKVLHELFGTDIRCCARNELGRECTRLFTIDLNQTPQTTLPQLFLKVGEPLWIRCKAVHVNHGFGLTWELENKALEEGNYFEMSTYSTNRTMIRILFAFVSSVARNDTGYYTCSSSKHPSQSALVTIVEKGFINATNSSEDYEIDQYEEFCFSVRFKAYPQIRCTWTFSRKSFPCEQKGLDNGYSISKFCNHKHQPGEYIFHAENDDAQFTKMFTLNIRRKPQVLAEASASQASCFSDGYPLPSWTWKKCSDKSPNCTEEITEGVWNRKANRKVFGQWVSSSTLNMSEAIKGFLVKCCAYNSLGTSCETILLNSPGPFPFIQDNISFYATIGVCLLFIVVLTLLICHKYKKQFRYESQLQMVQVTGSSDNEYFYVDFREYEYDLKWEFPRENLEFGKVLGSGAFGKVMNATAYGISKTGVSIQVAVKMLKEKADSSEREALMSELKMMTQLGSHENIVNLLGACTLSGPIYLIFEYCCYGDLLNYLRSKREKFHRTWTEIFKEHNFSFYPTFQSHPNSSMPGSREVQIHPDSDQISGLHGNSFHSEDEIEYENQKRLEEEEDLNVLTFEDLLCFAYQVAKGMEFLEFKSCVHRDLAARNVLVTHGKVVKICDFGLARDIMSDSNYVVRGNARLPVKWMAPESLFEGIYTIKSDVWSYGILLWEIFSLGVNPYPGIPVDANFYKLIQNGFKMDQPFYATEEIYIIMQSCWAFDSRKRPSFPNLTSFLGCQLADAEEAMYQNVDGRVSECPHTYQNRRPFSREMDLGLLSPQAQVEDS
# Experimental: as §3
# FLT3-ITD = molecular target: T6, FLT3-ITD (Homo sapiens, UniProt P36888); test: Kinase inhibition assay with [γ-33P]ATP; format: biochemical; details: AGLT substrate, 1 μM ATP; read-out: IC50 values (μM) FLT3 ITD
# T6 sequence (P36888 1-993): T4 sequence (P36888 1-993 D835Y) with Y835D
# Experimental: as §3
IC50 (CDK1/Cyclin B) [µM],IC50 (CDK2/Cyclin E) [µM],IC50 (CDK5/p35) [µM],IC50 (FLT3 D835) [µM],IC50 (FLT3 WT) [µM],IC50 (FLT3-ITD) [µM],SMILES,EC50 [1] [µM],EC50 (K562) [µM],EC50 (MCF-7) [µM],EC50 [2] [µM],EC50 [3] [µM],EC50 [4] [µM],EC50 [5] [µM],EC50 [6] [µM],EC50 (HL60) [µM]
,,,,,,NC1CCC(Nc2nc(Nc3ccc(CN4CC5(COC5)C4)nc3)c3ncn(C4CCCC4)c3n2)CC1 (stereo not drawn) [Compound 5],0.019,0.432,0.41,0.014,0.011,0.903,0.44,0.588,1.21
,,,,,,CCN1CC2(C1)CN(Cc1ccc(Nc3nc(NC4CCC(O)CC4)nc4c3ncn4C3CCCC3)cc1)C2 (stereo not drawn) [Compound 8],0.049,0.391,0.22,0.056,0.042,2.1,1.35,0.636,1.42
0.04,0.005,0.044,0.004,0.015,0.004,CCN1CC2(C1)CN(Cc1ccc(Nc3nc(NCCCN)nc4c3ncn4C3CCCC3)cc1)C2 [Compound 20],,,,,,,,,
